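Compound exposure: 48 hours, 5 concentrations, 96-well plates. At the GI50, growth is halved. The concentration for full growth arrest is given as TGI.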
What was measured:
Assay in all cases: DTP human tumour cell line panel, 48 h
SK-MEL-2 melanoma = tested on: SK-MEL-2 melanoma
SN12C renal = tested on: SN12C renal
SK-MEL-28 melanoma = tested on: SK-MEL-28 melanoma
NCI-H460 lung = tested on: NCI-H460 lung
UO-31 renal = tested on: UO-31 renal
NCI-H23 lung = tested on: NCI-H23 lung
SF-295 CNS = tested on: SF-295 CNS
SF-539 CNS = tested on: SF-539 CNS
RXF 393 renal = tested on: RXF 393 renal
BT-549 breast = tested on: BT-549 breast

SMILES | TGI (SK-MEL-2 melanoma) [µM] | TGI (SN12C renal) [µM] | TGI (SK-MEL-28 melanoma) [µM] | TGI (NCI-H460 lung) [µM] | TGI (UO-31 renal) [µM] | TGI (NCI-H23 lung) [µM] | TGI (SF-295 CNS) [µM] | GI50 (SF-539 CNS) [µM] | TGI (SF-539 CNS) [µM] | GI50 (SK-MEL-2 melanoma) [µM] | GI50 (SN12C renal) [µM] | GI50 (SK-MEL-28 melanoma) [µM] | GI50 (RXF 393 renal) [µM] | TGI (RXF 393 renal) [µM] | GI50 (UO-31 renal) [µM] | GI50 (BT-549 breast) [µM] | TGI (BT-549 breast) [µM] | GI50 (NCI-H23 lung) [µM] | GI50 (NCI-H460 lung) [µM] | GI50 (SF-295 CNS) [µM]
Nc1c(-c2cn(Cc3ccccc3)c3ccccc23)[n+]([O-])c2ccccc2[n+]1[O-] | 57 | > 100 | 91.8 | > 100 | 38.8 | 93.6 | 88.7 | – | – | – | – | – | – | – | – | – | – | – | – | –
O=C1/C(=C\c2ccc(F)cc2)CN(C(=O)c2ccccc2)C/C1=C\c1ccc(F)cc1 | 19.5 | 12.1 | 5.88 | – | 10.6 | 21.8 | – | 2.56 | 7.58 | 4.44 | 3.02 | 2.24 | 1.99 | 4.85 | 2.4 | 1.81 | 3.43 | 4.83 | – | –
COc1cccc2ccc(C(=O)c3ccccc3)nc12 | > 100 | > 100 | > 100 | – | – | > 100 | > 100 | – | > 100 | – | – | – | – | – | – | – | – | – | – | –
CN1C(=O)CCC2[C@@H]3CC=C4C[C@@H](O)CC[C@]4(C)C3CC[C@@]21C (stereo partly specified) | > 100 | – | > 100 | > 100 | > 100 | > 100 | > 100 | – | > 100 | – | – | – | – | > 100 | – | – | – | – | – | –
COc1ccc2c(c1)[n+]([O-])c(-c1ccc([N+](=O)[O-])cc1)c(N)[n+]2[O-] | > 100 | > 100 | > 100 | > 100 | > 100 | > 100 | > 100 | – | > 100 | – | – | – | – | > 100 | – | – | – | – | – | –
O=C1CC(c2c(-c3ccccc3)[nH]c3ccccc23)C(=O)N1 (stereo unspecified) | > 100 | – | > 100 | > 100 | > 100 | > 100 | > 100 | – | > 100 | – | – | – | – | > 100 | – | – | – | – | – | –
C#CCNC(=O)N(CC#C)N=O | > 100 | > 100 | > 100 | > 100 | > 100 | > 100 | > 100 | – | > 100 | – | – | – | – | > 100 | – | – | – | – | – | –
COc1ccc(C(CCC(C)=O)C(=O)O)cc1OC (stereo unspecified) | > 100 | > 100 | > 100 | > 100 | – | > 100 | > 100 | – | > 100 | – | – | – | – | > 100 | – | – | – | – | – | –
N.N.NCCCCCN.O=C([O-])CCl.O=C([O-])CCl.O=C([O-])CCl.O=C([O-])CCl.[Pt+4].[Pt+4] | > 100 | 1.69 | 73.8 | 18.6 | 17.9 | – | 86 | 3.08 | 19.8 | 35.8 | 0.161 | 23.2 | 2.87 | 21.1 | 4.23 | – | – | – | 0.316 | 1.84
CCOC(=O)c1ccc2c(c1)Cc1cc([N+](=O)[O-])ccc1-2 | – | > 100 | > 100 | > 100 | > 100 | > 100 | > 100 | – | > 100 | – | – | – | – | 55.5 | – | – | 94.2 | – | – | –
COc1c(C)cc(O)cc1C=O | > 100 | > 100 | > 100 | > 100 | > 100 | – | > 100 | – | > 100 | – | – | – | – | > 100 | – | – | – | – | – | –
COc1ccccc1NC(=O)C1=C(C)NC(C)=C(C(=O)Nc2ccccc2OC)C1C1=CC=COC1 | – | > 100 | 74 | 16.3 | > 100 | > 100 | 40.7 | – | 30.7 | – | – | – | – | – | – | – | – | – | – | –
COC(=O)CCC(NC(=S)N/N=C/c1ccccn1)C(=O)OC (stereo unspecified) | > 100 | > 100 | > 100 | > 100 | > 100 | > 100 | > 100 | – | > 100 | – | – | – | – | > 100 | – | – | – | – | – | –
CN(C)c1ccc(/C=C/C(=O)[O-])cc1.CN(C)c1ccc(/C=C/C(=O)[O-])cc1.[Cu+2] | > 100 | > 100 | > 100 | > 100 | > 100 | > 100 | > 100 | – | > 100 | – | – | > 69.8 | > 100 | > 100 | – | – | – | > 100 | – | –
O=[N+]([O-])c1ccc(C2CC(c3ccccc3Cl)=Nc3ccccc3S2)cc1 (stereo unspecified) | 24.5 | 17.4 | 22.7 | 45.1 | 36.8 | 10.8 | 38.5 | – | 17.7 | – | – | – | – | 12.6 | – | – | – | – | – | –
COc1ccc2sc3cccc(NCCN(C)C)c3c(=O)c2c1 | – | 13.4 | 5.3 | 6.22 | 6.97 | 14.2 | 17.5 | 3.52 | 13.3 | – | 3.36 | 2.26 | 2.67 | 9.76 | 2.06 | 5.4 | 18.6 | 3.64 | 2.57 | 4.61
Cc1cc([N+](=O)[O-])ccc1NC(=O)C(=O)C(C(=O)c1ccccc1-c1ccccc1)C1OC(=O)c2ccccc21 (stereo unspecified) | 29.2 | 37.4 | > 100 | 38.2 | 31.3 | 80 | 50.9 | – | 21.7 | – | – | – | – | 19.5 | – | – | – | – | – | –
Cc1ccc(Cl)cc1Nc1nc(C(F)(F)F)ccc1C(=O)N/N=C/c1cccnc1 | 15.3 | 21.9 | 15.8 | 11.1 | 16.2 | 20.3 | 4.51 | 2.45 | 10 | 3.74 | 4.75 | 4.24 | 1.36 | 7.5 | 3.51 | – | – | 5.6 | 2.76 | 1.38
c1ccc([CH2][Sn]([CH2]c2ccccc2)([O]c2cccc3cccnc23)[O]c2cccc3cccnc23)cc1 | 1.77 | 2.1 | 0.963 | 0.446 | 1.39 | 1.84 | 1.92 | 0.248 | 0.677 | 0.511 | 0.603 | 0.193 | – | – | 0.363 | – | – | 0.508 | 0.207 | 0.579
CC(=O)Nc1ccc(/C=c2\sc3nnc(CCC(=O)Nc4ccccc4Cl)n3c2=O)cc1 | 81.9 | > 100 | 56.5 | > 10 | > 100 | > 100 | 38.9 | – | 58 | – | – | – | – | 58.7 | – | – | – | – | – | –
